# From patent publication US20250017874A1, “PHARMACEUTICAL COMPOSITIONS FOR USE IN REDUCING HYPERPIGMENTATION” (Caliway Biopharmaceuticals Co., Ltd., priority 2023, published 2025)
# Tested on: B16-F10 cells
# Assay: In vitro efficacy test: melanin content after α-MSH induction (Example 3)
# Format: cell-based, mouse
# Protocol: Alpha-melanocyte-stimulating hormone (α-MSH) is a peptide hormone capable of inducing melanin production. In this study, the effects of 4-[(E)-2-(3,5-dihydroxyphenyl)ethenyl]benzene-1,3-diol samples (having different concentrations of 4-[(E)-2-(3,5-dihydroxyphenyl)ethenyl]benzene-1,3-diol) on inhibition of melanin production were investigated.
# B16-F10 cells were seeded in a 96-well plate at a density of 1×10^5 cells/well and cultured for 24 hours. The cells were then incubated with 0.1 μM α-MSH for 24 hours to include melanin production. The 4-[(E)-2-(3,5-dihydroxyphenyl)ethenyl]benzene-1,3-diol samples with different concentrations were then added to the cultured cells, which were cultured for an additional 24 hours. No α-MSH was used for the vehicle control group.
# After the cells were washed once with 1 mL of 1×PBS, add 300 μL of 1×Trypsin-EDTA, they were placed in a 37° C. incubator for 5 minutes. Finally, 1 mL of DMEM was added to the cells, and the number of cells were counted by Trypan blue staining.
# Cell suspension was centrifuged at 1500 g for 5 minutes at room temperature, followed by supernatant removal and air-dry of the pellet for 15 minutes. 1 N NaOH (containing 10% DMSO) was added to break up the pellet, followed by shaking by ultrasonic waves for 30 minutes and heating in a water bath at 80° C. for 1.5 hours. After cooling down, the suspension was taken and measured for absorbance at 405 nm. Results were calculated by deducting the reagent blank from the absorbance value at 405 nm and divided by the average absorbance value of the α-MSH Group.
smiles,measurement,setting,value
"Oc1cc(O)cc(/C=C/c2ccc(O)cc2O)c1 [IM01, 4-[(E)-2-(3,5-dihydroxyphenyl)ethenyl]benzene-1,3-diol]",Melanin production compared with vehicle group (without α-MSH),"IM01-C4, IM01-C5 and IM01-C6 groups (22.6, 32, 64 ppm)",lower than that of the vehicle group
same,EC50,"Mus musculus, B16-F10, printed as equal to 15.2 ppm",62 µM
same,Melanin Content Inhibition Ability (%) Mean,TA 8 ppm (IM01-C1),20.1%
same,Melanin content (%) Mean,"TA 8 ppm (IM01-C1), α-MSH 0.1 μM 24 h then TA 24 h, relative to α-MSH control",79.9%
same,Melanin Content Inhibition Ability (%) Mean,TA 11.3 ppm (IM01-C2),41.1%
same,Melanin content (%) Mean,"TA 11.3 ppm (IM01-C2), α-MSH 24 h then TA 24 h",58.9%
same,Melanin Content Inhibition Ability (%) Mean,TA 16 ppm (IM01-C3),56.8%
same,Melanin content (%) Mean,"TA 16 ppm (IM01-C3), α-MSH 24 h then TA 24 h",43.2%
same,Melanin Content Inhibition Ability (%) Mean,TA 22.6 ppm (IM01-C4),66.7%
same,Melanin content (%) Mean,"TA 22.6 ppm (IM01-C4), α-MSH 24 h then TA 24 h",33.3%
same,Melanin Content Inhibition Ability (%) Mean,TA 32 ppm (IM01-C5),74%
same,Melanin content (%) Mean,"TA 32 ppm (IM01-C5), α-MSH 24 h then TA 24 h",26.0%
same,Melanin Content Inhibition Ability (%) Mean,TA 64 ppm (IM01-C6),84.6%
same,Melanin content (%) Mean,"TA 64 ppm (IM01-C6), α-MSH 24 h then TA 24 h",15.4%
same,EC50 (melanin content),α-MSH 24 h then TA 24 h,around 15.2 ppm
